Measurements taken from ChEMBL document CHEMBL5725974, “ASK1 inhibitor compounds and uses thereof” (2018).

Target: T1, Mitogen-activated protein kinase kinase kinase 5 (Homo sapiens, UniProt Q99683)
T1 sequence (Q99683 whole entry): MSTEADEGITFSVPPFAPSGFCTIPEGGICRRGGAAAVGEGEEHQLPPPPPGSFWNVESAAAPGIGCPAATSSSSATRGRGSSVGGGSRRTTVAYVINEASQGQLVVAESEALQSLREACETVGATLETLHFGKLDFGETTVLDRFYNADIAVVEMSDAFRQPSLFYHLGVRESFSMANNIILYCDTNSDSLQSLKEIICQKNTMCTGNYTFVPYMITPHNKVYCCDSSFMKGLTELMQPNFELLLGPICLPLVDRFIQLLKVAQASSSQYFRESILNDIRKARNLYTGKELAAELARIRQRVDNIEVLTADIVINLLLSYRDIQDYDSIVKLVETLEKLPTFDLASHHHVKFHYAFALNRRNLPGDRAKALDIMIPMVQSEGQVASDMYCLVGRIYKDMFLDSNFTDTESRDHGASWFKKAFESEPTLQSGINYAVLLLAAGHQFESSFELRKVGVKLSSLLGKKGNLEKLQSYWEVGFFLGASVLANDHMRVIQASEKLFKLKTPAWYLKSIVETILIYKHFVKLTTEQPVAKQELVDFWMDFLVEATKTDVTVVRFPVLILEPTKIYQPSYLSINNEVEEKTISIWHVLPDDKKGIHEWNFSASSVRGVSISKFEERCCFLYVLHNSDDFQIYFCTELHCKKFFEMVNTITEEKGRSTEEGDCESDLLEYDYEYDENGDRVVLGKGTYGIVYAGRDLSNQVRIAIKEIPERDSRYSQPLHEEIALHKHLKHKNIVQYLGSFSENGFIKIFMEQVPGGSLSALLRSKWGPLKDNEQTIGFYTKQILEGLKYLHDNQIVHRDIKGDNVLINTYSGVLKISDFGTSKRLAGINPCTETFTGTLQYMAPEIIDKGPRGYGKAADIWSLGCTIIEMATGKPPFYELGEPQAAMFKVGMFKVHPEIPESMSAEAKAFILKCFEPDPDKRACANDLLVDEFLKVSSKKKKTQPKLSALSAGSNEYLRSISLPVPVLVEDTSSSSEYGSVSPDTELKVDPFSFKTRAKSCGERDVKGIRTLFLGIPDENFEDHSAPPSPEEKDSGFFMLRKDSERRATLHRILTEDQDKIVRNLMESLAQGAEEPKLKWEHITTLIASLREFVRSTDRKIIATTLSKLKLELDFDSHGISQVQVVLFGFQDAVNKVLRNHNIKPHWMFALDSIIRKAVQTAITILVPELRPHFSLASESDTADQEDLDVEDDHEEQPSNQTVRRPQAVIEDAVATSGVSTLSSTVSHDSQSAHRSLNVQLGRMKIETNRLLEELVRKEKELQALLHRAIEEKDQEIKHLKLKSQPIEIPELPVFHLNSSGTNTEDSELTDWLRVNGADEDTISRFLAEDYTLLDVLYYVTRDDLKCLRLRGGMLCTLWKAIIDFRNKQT
Test: ASK1 Kinase Assay: The ASK1 enzymatic assay was run following Promega ASK1 Kinase Enzyme System (Cat #V3881). The kit provides the protocol, enzymes and all reagents necessary to run an assay. Firstly, the compounds, enzyme, substrate and ATP were diluted in provided assay buffer. The final concentration of the enzyme was 50 nM, substrate (Myelin basic protein) 1 μg/ml and ATP 10 μM. The compound and the enzyme were pre-incubated in a 384 well white solid bottom plate (Greiner, Cat#784075) for 10 minutes. After incubation, the substrate and ATP were added and incubated for further 60 minutes. After 60 minutes, ADP-Glo™ was added and plate was incubated for another 40 minutes. After 40 minutes, Kinase Detection Reagent was added and the plate was incubated for 45 minutes. After 45 minutes, plate was read on Perkin Elmer EnVision using luminescence read (0.5 seconds/well).

- IC50: < 200 nM
Compound: O=C(NC1CC1)c1ccc2c(c1)CN(c1cccc(-c3nncn3C3CC3)n1)C2=O
